Measured values from PMC12396409, “Screening and hit evaluation of a microbial metabolite library against the pathogenic Plasmodium falciparum and Toxoplasma gondii parasites” (International Journal for Parasitology: Drugs and Drug …, 2025).
Read-outs that look alike come from different tables or passages of the source.

Assays:
[1] = test system: P. falciparum 3D7 parasites; test: P. falciparum growth inhibition assay, 2-cycle (120 h treatment), delayed-death screen and dose-response; format: cell-based, Plasmodium falciparum; conditions: for Pf_120h_%Growth_Rep1 / Pf_120h_%Growth_Rep2 / activity at 2 µg/mL: % growth; for activity at 2 µg/mL: Plasmodium falciparum, 3D7
[2] = test system: P. falciparum 3D7 parasites; test: P. falciparum growth inhibition assay, 1-cycle (72 h treatment), SYBR DNA staining (library screen at 2 μg/mL and dose-response); format: cell-based, Plasmodium falciparum; conditions: for Pf_72h_%Growth_Rep1 / Pf_72h_%Growth_Rep2 / activity at 2 µg/mL: % growth; for IC50: 3D7, 72 h treatment, mean ± S.D., n ≥ 3, read-out: IC50 (μM), P. falciparum; for activity at 2 µg/mL: 3D7
[3] = test system: T. gondii RH strain (RH-Tub-eYFP) tachyzoites; test: microbe, parasite or virus in culture; format: cell-based, Toxoplasma gondii; conditions: 72 h; for Tg_72h_%Growth_Rep1 / Tg_72h_%Growth_Rep2 / percent parasite growth at 2 µg/mL: % growth; for Mean / Replicate 1 / Replicate 2: 2 μg/mL; for Mean: mean of both replicates, growth (% of control); for Replicate 1 / Replicate 2: values are growth (% of control)
[4] = P. falciparum, 120 h, parasite screen 2 μg/mL, replicate 1
[5] = P. falciparum, 120 h, parasite screen 2 μg/mL, replicate 2
[6] = P. falciparum, 72 h, parasite screen 2 μg/mL, replicate 1
[7] = P. falciparum, 72 h, parasite screen 2 μg/mL, replicate 2
[8] = T. gondii, parasite screen 2 μg/mL, replicate 1
[9] = T. gondii, parasite screen 2 μg/mL, replicate 2
[10] = library screen at 2 μg/mL, 120 h, replicate 1
[11] = library screen at 2 μg/mL, 120 h, replicate 2
[12] = library screen at 2 μg/mL, 72 h, replicate 1
[13] = library screen at 2 μg/mL, 72 h, replicate 2
[14] = library screen at 2 μg/mL, replicate 1
[15] = library screen at 2 μg/mL, replicate 2

C=C1c2cccc(O)c2C(=O)C2=C(O)[C@]3(O)C(=O)C(C(N)=O)=C(O)[C@@H](N(C)C)[C@@H]3[C@@H](O)[C@H]12 [BIA-M1467]
Pf_120h_%Growth_Rep1 ([1]; P. falciparum 3D7, 120 h, parasite screen at 2 μg/mL, replicate 1): 96.98%
Pf_120h_%Growth_Rep2 ([1]; P. falciparum 3D7, 120 h, parasite screen at 2 μg/mL, replicate 2): 103.99%
Pf_72h_%Growth_Rep1 ([2]; P. falciparum 3D7, 72 h, parasite screen at 2 μg/mL, replicate 1): 83.43%
Pf_72h_%Growth_Rep2 ([2]; P. falciparum 3D7, 72 h, parasite screen at 2 μg/mL, replicate 2): 110.33%
Tg_72h_%Growth_Rep1 ([3]; T. gondii, parasite screen at 2 μg/mL, replicate 1): 118.90%
Tg_72h_%Growth_Rep2 ([3]; T. gondii, parasite screen at 2 μg/mL, replicate 2): 95.35%

C=C[C@]1(C)C[C@@H](OC(=O)CO)[C@]2(C)[C@H](C)CC[C@]3(CCC(=O)[C@H]32)[C@@H](C)[C@@H]1O [Pleuromutilin]
activity in 120 h dose-response assay against P. falciparum ([1]; 120 h): did not display any activity
IC50 ([2]; Plasmodium falciparum): > 1 µM
Screen (P. falciparum) ([2]; library screen at 2 μg/mL, 3D7, 72 h, DD from the 120 h timepoint): I, I
IC50 ([3]; Toxoplasma gondii, RH strain, mean ± S.D., n ≥ 3, read-out: IC50 (μM), T. gondii (converted)): > 1 µM
Screen (T. gondii) ([3]; library screen at 2 μg/mL, RH strain): I, I

Cc1cc(O)c2c(c1)C(=O)C13C(=C2O)C(=O)C2C(O)C1C1C(O)C3C(=O)C3=C(O)c4c(O)cc(C)cc4C(=O)C321 (stereo not shown) [Rugulosin - form]
Pf_120h_%Growth_Rep1 [1, 4]: 0.79%
Pf_120h_%Growth_Rep2 [1, 5]: 8.22%
Pf_72h_%Growth_Rep1 [2, 6]: 4.91%
Pf_72h_%Growth_Rep2 [2, 7]: 2.27%
Tg_72h_%Growth_Rep1 [3, 8]: 9.47%
Tg_72h_%Growth_Rep2 [3, 9]: 14.48%

CC[C@H]1CCC[C@H](O)[C@@H](C)C(=O)C2=C[C@@H]3[C@@H](C=C[C@@H]4C[C@@H](O[C@@H]5O[C@@H](C)[C@H](OC)[C@@H](OC)[C@H]5OC)C[C@@H]34)[C@@H]2CC(=O)O1 [Spinosyn A pseudoaglycone]
Pf_120h_%Growth_Rep1 [1, 4]: 17.26%
Pf_120h_%Growth_Rep2 [1, 5]: 10.80%
IC50 [2]: > 1 µM
Pf_72h_%Growth_Rep1 [2, 6]: 8.11%
Pf_72h_%Growth_Rep2 [2, 7]: -6.27%
Mean ([3]; T. gondii): 30.09
Replicate 1 ([3]; T. gondii): 50.49
Replicate 2 ([3]; T. gondii): 9.69
Tg_72h_%Growth_Rep1 [3, 8]: 50.49%
Tg_72h_%Growth_Rep2 [3, 9]: 9.69%

O=C1NC(c2c[nH]c3ccccc23)=C/C1=C1\C(=O)Nc2ccccc21 [Deoxyviolacein]
Pf_120h_%Growth_Rep1 [1, 10]: 11.68%
Pf_120h_%Growth_Rep2 [1, 11]: 9.06%
Pf_72h_%Growth_Rep1 [2, 12]: 4.36%
Pf_72h_%Growth_Rep2 [2, 13]: 20.63%
Mean ([3]; T. gondii): 20.63
Replicate 1 ([3]; T. gondii): 14.71
Replicate 2 ([3]; T. gondii): 26.55
Tg_72h_%Growth_Rep1 [3, 14]: 14.71%
Tg_72h_%Growth_Rep2 [3, 15]: 26.55%

CCc1c(Cl)c(O)c(Cl)c(O)c1C(=O)O[C@H]1[C@H](O)[C@H](OC)[C@H](OC/C2=C\C=C\C[C@H](O)/C(C)=C/[C@H](CC)[C@@H](O[C@@H]3OC(C)(C)[C@@H](OC(=O)C(C)C)[C@H](O)[C@@H]3O)/C(C)=C/C(C)=C/C[C@@H]([C@@H](C)O)OC2=O)O[C@@H]1C [fidaxomicin, reference compound]
activity at 2 µg/mL ([1]; library screen at 2 μg/mL, 120 h, replicate 1, read-out: Pf_120h_%Growth_Rep1): 13.8%
activity at 2 µg/mL ([1]; library screen at 2 μg/mL, 120 h, replicate 2, read-out: Pf_120h_%Growth_Rep2): -3.62%
activity at 2 µg/mL ([2]; Plasmodium falciparum, library screen at 2 μg/mL, 72 h, replicate 1, read-out: Pf_72h_%Growth_Rep1): 3.04%
activity at 2 µg/mL ([2]; Plasmodium falciparum, library screen at 2 μg/mL, 72 h, replicate 2, read-out: Pf_72h_%Growth_Rep2): -1.42%
selectivity for P. falciparum in the screens ([2]; active against the parasite at 2 μg/mL, no anti-tumour (NS-1) or cytotoxic (fibroblast) activity at 5 μg/mL): selective for P. falciparum
percent parasite growth at 2 µg/mL ([3]; Toxoplasma gondii, library screen at 2 μg/mL, replicate 1, read-out: Tg_72h_%Growth_Rep1): 85.9%
percent parasite growth at 2 µg/mL ([3]; Toxoplasma gondii, library screen at 2 μg/mL, replicate 2, read-out: Tg_72h_%Growth_Rep2): 92.4%

CO[C@H]1C[C@H](O[C@H]2[C@H](C)O[C@@H](O[C@@H]3/C(C)=C/C[C@@H]4C[C@@H](C[C@]5(C=C[C@H](C)[C@@H](C6CCCCC6)O5)O4)OC(=O)C4=C[C@H](C)[C@@H](O)[C@H]5OC/C(=C\C=C[C@@H]3C)[C@@]45O)C[C@@H]2OC)O[C@@H](C)[C@@H]1O [Doramectin, delta2-]
Pf_120h_%Growth_Rep1 [1, 10]: 4.07%
Pf_120h_%Growth_Rep2 [1, 11]: 0.97%
Pf_72h_%Growth_Rep1 [2, 12]: 3.28%
Pf_72h_%Growth_Rep2 [2, 13]: 1.57%
Tg_72h_%Growth_Rep1 [3, 14]: 85.18%
Tg_72h_%Growth_Rep2 [3, 15]: 104.19%
